From patent US20030229113A1, “Keratinocyte growth inhibitors and hydroxamic acid derivatives” (priority 2003, published 2003)
Like-named read-outs stand apart in the source and are kept apart here.

Key:
[1] = test system: solubilizing enzyme of HB-EGF; assay: Inhibition of TPA-stimulated release of HB-EGF from HT-1080 transfectant expressing HB-EGF/alkaline phosphatase fusion protein; format: cell-based, human; conditions: HT-1080 HB-EGF-AP transfectant, TPA 60 nM for 60 min, AP activity in conditioned medium (OD405)
Experimental: Human fibrosarcoma HT-1080 stable transfectant expressing fusion protein of HB-EGF and human placental alkaline phosphatase (AP) were used for following experiments.
The cultured transfectant was treated with Trypsin-EDTA solution, and suspended in Minimum Essential Medium (without phenol red; supplemented with 10% heat-inactivated fetal calf serum; MEM) at the concentration of 1×10^5 cells/ml. Each 0.2 ml of the cell suspension was dispensed into individual wells of 96 well microplate, and incubated overnight in the CO2 incubator (37° C.). After the incubation, the conditioned medium was removed, and the wells were washed once with 0.2 ml of phosphate buffered saline. The cells were treated with 0.1 ml of compound solution [compound solutions in dimethylsulfoxide (DMSO) were diluted 100 times with MEM] for 30 min at 37° C. Then the compound solutions were removed, and cells were treated with 0.2 ml of TPA solution (120 μM) of stock solution was diluted to 60 nM with MEM) containing same concentration of the compound for 60 min at 37° C. The cells treated same procedure without compound were used as control.
After these treatments, each 0.1 ml of conditioned medium was transferred to individual wells of new 96 well microplate and incubated at 65° C. for 10 min to inactivate endogenous alkaline phosphatase. One hundred microliter of substrate solution (1 mg/ml of p-nitrophenyl phosphate in 0.01% magnesium chloride/1 M diethanolamine) for AP was added to each well and incubated for 120 min at room temperature in the dark. The OD405 of each well was measured with microplate reader. The IC50 values of the compounds were calculated from the concentration-inhibition curves.

[2] = test system: epidermal hyperplasia induced by TPA; assay: TPA-induced epidermal hyperplasia on dorsal skin of mice; format: in vivo, male BALB/c mice; conditions: ED50; topical in acetone at 1 minute, 24 and 48 hours after TPA; epidermal thickness 72 hours after TPA
Experimental: After backs of male BALB/c mice were shaved, 20 micro 1 of TPA-acetone solution (50 μM) was applied to the dorsal skin surface in an area of ca. 1 cm^2. A volume of 20 micro 1 of test compound-acetone solution was applied to the same area a minute, 24 hours and 48 hours after TPA application (the treated group). In the non-treated group, acetone was applied instead of the test compound. In the control group, acetone was applied instead of TPA and the test compound. The mice were sacrificed, and the skin tissues treated with TPA or the test compound were excised 72 hours after TPA application. Then the tissues were fixed with 10% formalin and embedded in paraffin according to the conventional method. The vertical sections including the center of the TPA- or the test compound-treated area were prepared and they were stained by hematoxylin-eosin. The epidermal thickness was measured using an ocular microscope. The amount of the test compound required for achieving 50% inhibition against the mean epidermal thickness of the non-treated group (ED50) was calculated, wherein the mean epidermal thickness of the non-treated group was 100% and that of the control group was 0%.

SMILES | IC50 ([1]; read-out: IC50) | IC50 [1] | Amount of test compound required for 50% suppression of epidermal hyperplasia [2]
O=C(NO)C1Cc2nccnc2CN1S(=O)(=O)c1cccs1 (single isomer, unassigned; (+)) [the compound(46), (+)-N-Hydroxy-6-[(thiophen-2-yl)sulfonyl]-5,6,7,8-tetrahydropyrido[3,4-b]pyrazine-7-carboxamide] |  | 960 nM | 69 10^−6 g/cm^2
CNC(=O)C(Cc1cccc2ccccc12)NC(=O)C(CC(=O)NO)CC(C)C [the compound d, [4-(N-hydroxyamino)-2 (R)-isobutylsuccinyl]-L-3-(1-naphtyl)-alanine-N-methylamide, reference compound] | 1700 nM |  | 40 10^−6 g/cm^2
O=C(NO)C1Cc2nccnc2CN1S(=O)(=O)c1ccc(-c2ccccc2)cc1 (single isomer, unassigned; (+)) [the compound(40), (+)-N-Hydroxy-6-(biphenyl-4-sulfonyl)-5,6,7,8-tetrahydropyrido[3,4-b]pyrazine-7-carboxamide] | 1500 nM |  | 20 10^−6 g/cm^2
O=C(NO)C1Cc2nccnc2CN1S(=O)(=O)c1ccc(Oc2cnccn2)cc1 (racemic) [the compound(5), (±)-N-Hydroxy-6-[4-(pyrazine-2-yloxy)benzenesulfonyl]-5,6,7,8-tetrahydropyrido[3,4-b]pyrazine-7-carboxamide] |  | 900 nM | 
COCCOc1ccc(S(=O)(=O)N2Cc3nccnc3CC2C(=O)NO)cc1 (racemic) [the compound(8), (±)-N-Hydroxy-6-[4-(2-methoxyethoxy)benzenesulfonyl]-5,6,7,8-tetrahydropyrido[3,4-b]pyrazine-7-carboxamide] | 840 nM |  | 
COc1ccc(S(=O)(=O)N2C(C)c3nccnc3C(C)C2C(=O)NO)cc1 (stereo not drawn) [the compound(49), 7,8-cis-N-Hydroxy-5,8-dimethyl-6-(4-methoxybenzenesulfonyl)-5,6,7,8-tetrahydropyrido[3,4-b]pyrazine-7-carboxamide] | 5600 nM |  | 
O=C(NO)C1Cc2nccnc2CN1S(=O)(=O)c1ccc(OCCO)cc1 (single isomer, unassigned; (+)) [the compound(34), (+)-N-Hydroxy-6-[4-(2-hydroxyethoxy)benzenesulfonyl]-5,6,7,8-tetrahydropyrido[3,4-b]pyrazine-7-carboxamide] | 1500 nM |  | 
CC(=O)OCCOc1ccc(S(=O)(=O)N2Cc3nccnc3CC2C(=O)NO)cc1 (single isomer, unassigned; (+)) [the compound(33), (+)-N-Hydroxy-6-[4-(2-acetoxyethoxy)benzenesulfonyl]-5,6,7,8-tetrahydropyrido[3,4-b]pyrazine-7-carboxamide] | 400 nM |  | 
CCOC(=O)CCCOc1ccc(S(=O)(=O)N2Cc3nccnc3CC2C(=O)NO)cc1 (single isomer, unassigned; (+)) [the compound(32), (+)-N-Hydroxy-6-[4-(3-ethoxycarbonylpropoxy)benzenesulfonyl]-5,6,7,8-tetrahydropyrido[3,4-b]pyrazine-7-carboxamide] | 1100 nM |  | 
O=C(NO)C1Cc2nccnc2CN1S(=O)(=O)c1ccc(Oc2ccncc2)cc1 (racemic) [the compound(2), (±)-N-Hydroxy-6-[4-(pyridine-4-yloxy)benzenesulfonyl]-5,6,7,8-tetrahydropyrido[3,4-b]pyrazine-7-carboxamide] |  | 990 nM | 
Cc1ccc(S(=O)(=O)N2Cc3nccnc3CC2C(=O)NO)cc1 (single isomer, unassigned; (+)) [the compound(31), (+)-N-Hydroxy-6-(4-methylbenzenesulfonyl)-5,6,7,8-tetrahydropyrido[3,4-b]pyrazine-7-carboxamide] | 2700 nM |  | 
CC(C)(C)C(=O)Oc1ccc(S(=O)(=O)N2Cc3nccnc3CC2C(=O)NO)cc1 (single isomer, unassigned; (+)) [the compound(28), (+)-N-Hydroxy-6-(4-pivaloyloxybenzenesulfonyl)-5,6,7,8-tetrahydropyrido[3,4-b]pyrazine-7-carboxamide] | 2800 nM |  | 

Further lines, with some results ahead:

IC50 ([1]; read-out: IC50) | SMILES | IC50 [1] | Amount of test compound required for 50% suppression of epidermal hyperplasia [2]
36 nM | CCOCCOc1ccc(S(=O)(=O)N2Cc3nccnc3CC2C(=O)NO)cc1 (single isomer, unassigned; (+)) [the compound(27), (+)-N-Hydroxy-6-[4-(2-ethoxyethoxy)benzenesulfonyl]-5,6,7,8-tetrahydropyrido[3,4-b]pyrazine-7-carboxamide] |  | 58 10^−6 g/cm^2
430 nM | CNC(=O)C(NC(=O)C(CC(C)C)C(C)C(=O)NO)c1ccccc1 [the compound a, [4-(N-hydroxyamino)-2 (R)-isobutyl-3-methylsuccinyl]-L-phenylglycine-N-methylamide, reference compound] |  | 
120 nM | CNC(=O)C(Cc1cccc2c1CCCC2)NC(=O)C(CC(C)C)C(C)C(=O)NO [the compound b, [4-(N-hydroxyamino)-2 (R)-isobutyl-3-methylsuccinyl]-L-3-(5,6,7,8-tetrahydro-1-naphtyl)alanine-N-methylamide, reference compound] |  | 
200 nM | N#CCCOc1ccc(S(=O)(=O)N2Cc3nccnc3CC2C(=O)NO)cc1 (single isomer, unassigned; (+)) [the compound(29), (+)-N-Hydroxy-6-[4-(2-cyanoethoxy)benzenesulfonyl]-5,6,7,8-tetrahydropyrido[3,4-b]pyrazine-7-carboxamide] |  | 
560 nM | CC(C)COCCCOc1ccc(S(=O)(=O)N2Cc3nccnc3CC2C(=O)NO)cc1 (single isomer, unassigned; (+)) [the compound(26), (+)-N-Hydroxy-6-[4-(3-isobuthoxypropoxy)benzenesulfonyl]-5,6,7,8-tetrahydropyrido[3,4-b]pyrazine-7-carboxamide] |  | 
260 nM | CCOCCOc1ccc(S(=O)(=O)N2Cc3nccnc3CC2C(=O)NO)cc1 (racemic) [the compound(7), (±)-N-Hydroxy-6-[4-(2-ethoxyethoxy)benzenesulfonyl]-5,6,7,8-tetrahydropyrido[3,4-b]pyrazine-7-carboxamide] |  | 
460 nM | CCCCCOc1ccc(S(=O)(=O)N2Cc3nccnc3CC2C(=O)NO)cc1 (racemic) [the compound(9), (±)-N-Hydroxy-6-(4-pentyloxybenzenesulfonyl)-5,6,7,8-tetrahydropyrido[3,4-b]pyrazine-7-carboxamide] |  | 
600 nM | O=C(NO)C1Cc2nccnc2CN1S(=O)(=O)c1ccc(OCCCBr)cc1 (single isomer, unassigned; (+)) [the compound(24), (+)-N-Hydroxy-6-[4-(3-bromopropoxy)benzenesulfonyl]-5,6,7,8-tetrahydropyrido[3,4-b]pyrazine-7-carboxamide] |  | 
92 nM | CCOCCCOc1ccc(S(=O)(=O)N2Cc3nccnc3CC2C(=O)NO)cc1 (single isomer, unassigned; (+)) [the compound(23), (+)-N-Hydroxy-6-[4-(3-ethoxypropoxy)benzenesulfonyl]-5,6,7,8-tetrahydropyrido[3,4-b]pyrazine-7-carboxamide] |  | 
810 nM | O=C(NO)C1Cc2nccnc2CN1S(=O)(=O)c1ccc(F)cc1 (single isomer, unassigned; (+)) [the compound(37), (+)-N-Hydroxy-6-(4-fluorobenzenesulfonyl)-5,6,7,8-tetrahydropyrido[3,4-b]pyrazine-7-carboxamide] |  | 120 10^−6 g/cm^2
